Source: ChEMBL document CHEMBL1201862, “PubChem BioAssay data set” (2004)
Calls of active or inactive are those of the source.

How the values were obtained:
INS1 = assay: beta cell apoptosis inhibitors, cytokine rescue, dose response, luminescence, retest (AID 449756); type: functional, cell-based; settings: Rattus norvegicus;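 also: cell death triggered by IL-1 beta plus TNF-alpha plus IFN-gamma mixture; protective hits raise ATP signal compared with cytokine alone wells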
[1] = HepG2 cell cytotoxicity, dose response, cytotoxicity control for Shn3 inhibitor project, CellTiter-Glo, cherry-picked (AID 624134); type: functional, cell-based
Cytochrome P450 2D6 = Cytochrome P450 2D6 (Homo sapiens, UniProt P10635);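 also: CYP2D6 member of a cytochrome P450 panel assay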
Cytochrome P450 2D6, sequence (P10635 whole entry): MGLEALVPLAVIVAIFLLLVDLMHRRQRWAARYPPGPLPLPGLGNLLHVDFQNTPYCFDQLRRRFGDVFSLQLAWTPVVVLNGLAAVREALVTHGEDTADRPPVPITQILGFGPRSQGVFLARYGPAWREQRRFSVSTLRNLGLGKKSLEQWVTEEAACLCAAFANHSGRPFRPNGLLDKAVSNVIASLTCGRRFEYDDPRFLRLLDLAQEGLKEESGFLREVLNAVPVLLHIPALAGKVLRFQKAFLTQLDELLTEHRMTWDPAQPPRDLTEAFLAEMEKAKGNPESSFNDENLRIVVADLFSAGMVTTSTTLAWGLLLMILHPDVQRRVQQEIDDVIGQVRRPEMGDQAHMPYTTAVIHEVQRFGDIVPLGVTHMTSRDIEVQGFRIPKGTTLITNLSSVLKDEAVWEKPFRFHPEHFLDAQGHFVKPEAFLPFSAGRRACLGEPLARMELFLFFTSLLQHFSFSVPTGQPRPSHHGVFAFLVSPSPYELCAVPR

Cytochrome P450 2C9 = Cytochrome P450 2C9 (Homo sapiens, UniProt P11712)
Cytochrome P450 2C9, sequence (P11712 whole entry): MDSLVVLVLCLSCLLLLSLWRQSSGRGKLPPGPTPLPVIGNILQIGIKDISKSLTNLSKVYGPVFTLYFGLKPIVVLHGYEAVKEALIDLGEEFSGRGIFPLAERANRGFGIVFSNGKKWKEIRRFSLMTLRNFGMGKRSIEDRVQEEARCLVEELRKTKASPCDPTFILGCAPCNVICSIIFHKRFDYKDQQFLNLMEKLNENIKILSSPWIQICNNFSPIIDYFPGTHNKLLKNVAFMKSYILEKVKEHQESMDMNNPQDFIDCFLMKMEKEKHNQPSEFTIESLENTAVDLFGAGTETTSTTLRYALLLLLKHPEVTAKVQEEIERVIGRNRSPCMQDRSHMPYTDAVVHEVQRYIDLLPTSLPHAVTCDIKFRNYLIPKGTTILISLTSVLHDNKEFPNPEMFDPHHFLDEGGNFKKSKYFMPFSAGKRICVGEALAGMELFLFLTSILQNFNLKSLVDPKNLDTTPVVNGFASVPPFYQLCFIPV

[2] = control 3'UTR Renilla luciferase suppression, dose response, counter-screen for Shn3 inhibitor project, cell-based, Clone20-Shn3RL, cherry-picked (AID 624133); type: functional
[3] = reduction of Shn3 3'UTR firefly luciferase signal, dose response, Schnurri-3 inhibitor project, cell-based, Clone20 osteoblasts, cherry-pick, set 2 (AID 720490); type: functional;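 also: actives lower the luminescence signal as inhibitors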
[4] = Shn3 3'UTR reporter inhibitors, dose response, cell-based, Clone20 osteoblasts, firefly luciferase, cherry-picked (AID 624132); type: functional;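 also: firefly luciferase luminescence from reporter carrying the Shn3 3'UTR in osteoblasts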
[5] = C. albicans growth with fluconazole, confirmation, fluorescence, retest (AID 2467); type: functional, cell-based
[6] = HEp-2 cell cytotoxicity, dose response, cytotoxicity control for RSV inhibitor project, HTS (AID 2410); type: functional; settings: human respiratory syncytial virus
[7] = HepG2 cell cytotoxicity, dose response, cytotoxicity control, ATP luminescence, cherry-pick, set 6 (AID 1053125); type: functional, cell-based
[8] = NIH-3T3 fibroblast cytotoxicity, dose response, cytotoxicity control, cell-based, fluorescence, Alamar Blue, secondary assay (AID 2327); type: functional;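 also: NIH-3T3 mouse fibroblasts cultured with fluconazole at 8 µg/mL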
cells [9] = settings: HEK293
cells [10] = settings: A549
[11] = target: T1, Heat shock factor protein 1 (Mus musculus, UniProt P38532); assay: HSF1 potentiators in luciferase reporter cells, confirmation, cell-based, NIH3T3, luminescence, dose retest (AID 435004); type: functional;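 also: stress induced by proteasome inhibitor MG132 added 30 min after compound; luciferase reporter driven by HSF1 response element in NIH3T3 cells; actives raise luminescence as potentiators of the MG132 stress response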
T1 sequence (P38532 whole entry): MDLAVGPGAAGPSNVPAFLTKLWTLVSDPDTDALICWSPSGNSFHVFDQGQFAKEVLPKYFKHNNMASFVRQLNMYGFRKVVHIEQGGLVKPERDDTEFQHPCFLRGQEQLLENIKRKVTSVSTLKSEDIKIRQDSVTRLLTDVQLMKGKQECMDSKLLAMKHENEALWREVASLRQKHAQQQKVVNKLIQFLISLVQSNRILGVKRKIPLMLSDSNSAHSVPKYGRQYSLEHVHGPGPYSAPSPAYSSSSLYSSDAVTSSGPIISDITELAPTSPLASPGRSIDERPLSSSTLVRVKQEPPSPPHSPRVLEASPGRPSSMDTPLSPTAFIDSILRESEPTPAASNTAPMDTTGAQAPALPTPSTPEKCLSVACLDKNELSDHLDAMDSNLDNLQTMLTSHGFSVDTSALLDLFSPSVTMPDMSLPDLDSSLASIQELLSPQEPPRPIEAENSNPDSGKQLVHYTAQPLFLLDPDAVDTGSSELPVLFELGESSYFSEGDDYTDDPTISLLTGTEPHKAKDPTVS

Albumin = Albumin (Bos taurus, UniProt P02769); assay: Counterscreen for inhibitors of T-cell receptor (TCR)-CD3 interaction: Fluorescence-based biochemical high throughput dose response assay to identify inhibitors of T-cell receptor (TCR)-CD3 interaction using a TAMRA-labeled BSA probe.; type: functional
HEK293 [12] = assay: NOD1 signaling inhibitors, primary screen, cell-based, luminescence, uHTS (AID 1578); type: functional; settings: Homo sapiens
HEK293 [13] = assay: cells; type: functional, cell-based; settings: Homo sapiens
[14] = Luminescence Cell-Based Dose Retest to Confirm Inhibitors of Cancer Stem Cells. [Related pubchem assays (depositor defined):AID2717, AID2721]; type: functional; settings: Homo sapiens
[15] = THP-1 cell cytotoxicity, dose response, cytotoxicity control for Vif-APOBEC3G degradation inhibitor project, THP-1 cells (AID 1117359); type: functional; settings: Human immunodeficiency virus 1, THP-1
[16] = target: COUP transcription factor 2 (Homo sapiens, UniProt P24468); assay: Luminescence-based cell-based high throughput dose response assay to identify inhibitors of COUP-TFII (NR2F2).; type: functional;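 also: HEK293 cells transiently cotransfected with COUP-TFII expression vector and reporter; luciferase reporter luminescence driven by COUP-TFII from the pX2-168 reporter plasmid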
COUP transcription factor 2, sequence (P24468 whole entry): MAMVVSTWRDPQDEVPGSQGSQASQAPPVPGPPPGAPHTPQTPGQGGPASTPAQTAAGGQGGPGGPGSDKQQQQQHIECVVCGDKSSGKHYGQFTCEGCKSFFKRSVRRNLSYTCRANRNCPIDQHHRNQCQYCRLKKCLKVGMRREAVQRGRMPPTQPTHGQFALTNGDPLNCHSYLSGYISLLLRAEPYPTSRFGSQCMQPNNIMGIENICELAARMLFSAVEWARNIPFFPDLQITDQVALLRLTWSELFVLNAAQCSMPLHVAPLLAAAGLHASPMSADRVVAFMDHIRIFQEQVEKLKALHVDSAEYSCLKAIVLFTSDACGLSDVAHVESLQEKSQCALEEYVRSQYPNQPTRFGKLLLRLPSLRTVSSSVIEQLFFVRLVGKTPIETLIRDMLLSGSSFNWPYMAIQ

HEK293 [17] = assay: NOD2 signaling inhibitors in MDP-stimulated cells, cell-based, uHTS, luminescence (AID 2001); type: functional; settings: Homo sapiens
HEK293 [18] = assay: cells; type: functional, cell-based; settings: Homo sapiens; remark: listed apart in the source
Caspase-6 = target: T2, Caspase-6 (Homo sapiens, UniProt P55212); assay: human caspase-6 inhibitors, dose response, biochemical, VEID-R110 fluorescence, cherry-pick (AID 720632)
T2 sequence (P55212 whole entry): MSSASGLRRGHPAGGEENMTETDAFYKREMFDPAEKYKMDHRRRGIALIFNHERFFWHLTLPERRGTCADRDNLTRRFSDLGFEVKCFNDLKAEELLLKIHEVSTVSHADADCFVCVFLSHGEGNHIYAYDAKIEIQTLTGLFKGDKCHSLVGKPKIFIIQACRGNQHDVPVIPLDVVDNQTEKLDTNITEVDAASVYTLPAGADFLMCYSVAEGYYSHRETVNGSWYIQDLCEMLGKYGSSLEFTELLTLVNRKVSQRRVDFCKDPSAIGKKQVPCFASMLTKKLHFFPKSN

H9c2 = assay: cells; type: functional, cell-based; settings: Rattus norvegicus, H9c2, Myocardium;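 also: confirmatory concentration-response retest of ultra-high-throughput screening hits for modulation of myocardial damage; cell death induced by hydrogen peroxide oxidative stress; compound pretreatment for 60 min then peroxide exposure for 2 h; potency is for protecting the cells against peroxide damage rather than for killing them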
[19] = target: Histone-lysine N-methyltransferase NSD2 (Homo sapiens, UniProt O96028); type: biochemical
Histone-lysine N-methyltransferase NSD2, sequence (O96028 whole entry): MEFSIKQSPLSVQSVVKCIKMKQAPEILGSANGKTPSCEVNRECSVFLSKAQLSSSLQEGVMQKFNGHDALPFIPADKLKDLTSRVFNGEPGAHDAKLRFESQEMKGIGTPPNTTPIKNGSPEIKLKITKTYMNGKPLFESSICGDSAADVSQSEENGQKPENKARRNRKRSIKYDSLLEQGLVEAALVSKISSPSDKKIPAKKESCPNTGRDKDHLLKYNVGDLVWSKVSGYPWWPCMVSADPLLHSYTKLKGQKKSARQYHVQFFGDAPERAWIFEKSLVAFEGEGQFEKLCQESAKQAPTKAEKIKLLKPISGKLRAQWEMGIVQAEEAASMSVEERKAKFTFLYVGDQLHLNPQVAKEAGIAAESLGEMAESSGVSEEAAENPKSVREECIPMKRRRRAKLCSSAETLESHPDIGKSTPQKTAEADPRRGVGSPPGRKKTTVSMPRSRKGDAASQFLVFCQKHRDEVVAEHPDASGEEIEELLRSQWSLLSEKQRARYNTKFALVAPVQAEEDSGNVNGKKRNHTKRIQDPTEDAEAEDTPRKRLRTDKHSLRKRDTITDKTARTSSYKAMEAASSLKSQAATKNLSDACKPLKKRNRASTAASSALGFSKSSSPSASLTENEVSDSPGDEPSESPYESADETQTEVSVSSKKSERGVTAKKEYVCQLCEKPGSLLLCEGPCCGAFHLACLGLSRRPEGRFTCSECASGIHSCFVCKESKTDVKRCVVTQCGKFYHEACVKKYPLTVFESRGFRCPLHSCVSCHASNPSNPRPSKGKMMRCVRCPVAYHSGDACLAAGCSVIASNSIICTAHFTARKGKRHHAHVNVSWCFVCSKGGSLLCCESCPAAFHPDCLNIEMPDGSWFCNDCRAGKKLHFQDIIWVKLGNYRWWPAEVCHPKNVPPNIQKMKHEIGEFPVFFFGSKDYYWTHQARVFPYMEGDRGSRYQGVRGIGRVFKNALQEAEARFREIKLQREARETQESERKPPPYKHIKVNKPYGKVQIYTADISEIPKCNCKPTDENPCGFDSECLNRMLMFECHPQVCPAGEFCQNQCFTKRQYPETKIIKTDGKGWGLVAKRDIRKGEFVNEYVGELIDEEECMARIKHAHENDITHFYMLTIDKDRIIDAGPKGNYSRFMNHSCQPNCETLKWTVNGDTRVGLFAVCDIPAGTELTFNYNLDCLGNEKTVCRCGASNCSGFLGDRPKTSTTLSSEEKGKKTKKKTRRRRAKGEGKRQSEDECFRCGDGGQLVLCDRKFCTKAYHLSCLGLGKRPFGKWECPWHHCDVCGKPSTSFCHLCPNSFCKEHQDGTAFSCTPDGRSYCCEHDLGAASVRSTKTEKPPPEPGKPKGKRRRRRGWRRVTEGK

[20] = target: Glucose-6-phosphate 1-dehydrogenase (Homo sapiens, UniProt P11413); assay: human G6PD enzyme inhibitors, dose response, selectivity assay for P. falciparum G6PD inhibitor project, biochemical, fluorescence (AID 504792); type: functional
Glucose-6-phosphate 1-dehydrogenase, sequence (P11413 whole entry): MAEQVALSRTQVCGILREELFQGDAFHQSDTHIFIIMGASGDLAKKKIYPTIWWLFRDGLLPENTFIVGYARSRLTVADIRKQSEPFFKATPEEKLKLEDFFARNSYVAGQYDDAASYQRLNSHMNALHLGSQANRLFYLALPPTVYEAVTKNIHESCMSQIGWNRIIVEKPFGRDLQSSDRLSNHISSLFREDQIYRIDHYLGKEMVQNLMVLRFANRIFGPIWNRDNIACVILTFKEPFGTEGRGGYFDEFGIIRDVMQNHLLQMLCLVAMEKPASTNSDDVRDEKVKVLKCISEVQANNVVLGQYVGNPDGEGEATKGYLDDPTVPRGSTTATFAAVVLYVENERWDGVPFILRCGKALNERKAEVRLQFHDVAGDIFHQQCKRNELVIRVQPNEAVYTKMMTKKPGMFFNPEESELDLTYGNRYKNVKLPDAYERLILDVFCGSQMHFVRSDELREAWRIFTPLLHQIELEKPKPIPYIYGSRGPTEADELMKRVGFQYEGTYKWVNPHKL

[21] = target: DNA (cytosine-5)-methyltransferase 1 (Homo sapiens, UniProt P26358); assay: DNMT1 methyltransferase inhibitors, confirmation, biochemical, fluorescent molecular beacon (AID 602386); type: functional
DNA (cytosine-5)-methyltransferase 1, sequence (P26358 whole entry): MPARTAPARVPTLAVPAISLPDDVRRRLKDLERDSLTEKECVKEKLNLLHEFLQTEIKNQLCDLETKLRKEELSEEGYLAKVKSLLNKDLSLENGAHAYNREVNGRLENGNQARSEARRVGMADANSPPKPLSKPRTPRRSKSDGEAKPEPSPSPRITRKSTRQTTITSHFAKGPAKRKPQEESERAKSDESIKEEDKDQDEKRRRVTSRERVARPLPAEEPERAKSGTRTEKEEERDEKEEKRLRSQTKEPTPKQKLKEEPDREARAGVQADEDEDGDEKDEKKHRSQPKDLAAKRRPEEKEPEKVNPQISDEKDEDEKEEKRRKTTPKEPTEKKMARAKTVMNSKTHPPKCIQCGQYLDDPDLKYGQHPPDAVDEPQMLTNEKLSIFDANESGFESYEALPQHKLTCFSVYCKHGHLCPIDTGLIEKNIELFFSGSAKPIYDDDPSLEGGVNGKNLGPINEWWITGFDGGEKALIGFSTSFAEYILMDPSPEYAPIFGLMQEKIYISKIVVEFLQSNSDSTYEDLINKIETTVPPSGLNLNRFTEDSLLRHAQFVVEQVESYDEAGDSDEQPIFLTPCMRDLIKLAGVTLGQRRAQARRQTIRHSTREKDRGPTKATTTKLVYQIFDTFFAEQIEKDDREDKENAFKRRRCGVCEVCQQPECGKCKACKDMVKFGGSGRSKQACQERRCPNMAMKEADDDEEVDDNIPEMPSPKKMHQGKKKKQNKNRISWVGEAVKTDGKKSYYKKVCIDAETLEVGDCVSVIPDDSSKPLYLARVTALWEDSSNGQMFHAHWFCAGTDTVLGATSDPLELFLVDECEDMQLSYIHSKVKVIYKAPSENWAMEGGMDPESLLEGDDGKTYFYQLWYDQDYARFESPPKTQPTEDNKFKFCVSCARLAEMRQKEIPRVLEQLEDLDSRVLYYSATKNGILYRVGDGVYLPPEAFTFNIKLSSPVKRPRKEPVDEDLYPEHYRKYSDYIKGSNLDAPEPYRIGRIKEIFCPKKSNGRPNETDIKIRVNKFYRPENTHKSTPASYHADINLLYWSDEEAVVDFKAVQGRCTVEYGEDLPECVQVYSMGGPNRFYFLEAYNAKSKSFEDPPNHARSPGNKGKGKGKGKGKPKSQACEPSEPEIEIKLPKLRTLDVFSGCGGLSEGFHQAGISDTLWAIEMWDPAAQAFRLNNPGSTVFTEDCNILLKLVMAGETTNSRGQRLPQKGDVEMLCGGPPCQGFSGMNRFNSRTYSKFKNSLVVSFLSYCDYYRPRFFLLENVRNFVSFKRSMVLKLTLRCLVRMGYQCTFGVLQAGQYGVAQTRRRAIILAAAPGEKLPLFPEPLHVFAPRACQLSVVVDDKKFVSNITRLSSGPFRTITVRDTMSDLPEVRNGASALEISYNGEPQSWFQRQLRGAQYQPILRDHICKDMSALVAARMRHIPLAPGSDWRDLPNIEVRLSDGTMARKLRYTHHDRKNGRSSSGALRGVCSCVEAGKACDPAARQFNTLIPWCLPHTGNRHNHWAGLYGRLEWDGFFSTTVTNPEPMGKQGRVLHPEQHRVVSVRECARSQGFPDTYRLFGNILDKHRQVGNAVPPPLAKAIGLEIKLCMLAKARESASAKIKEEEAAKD

cells [22] = assay: cells
Major prion protein = Major prion protein (Homo sapiens, UniProt P04156); type: functional, cell-based

Cc1ccc2c(c1)nnn2C1CCN(S(=O)(=O)c2ccc(C(=O)N3C(C)CCCC3C)cc2)CC1 (stereo not given)
AC50 (INS1): 4.53 µM (active) | AC50 [1]: 60.8 µM (active) | AC50 (Cytochrome P450 2D6): 0.158 µM (inconclusive) | AC50 (Cytochrome P450 2C9): 15.8 µM (inconclusive) | AC50 [2]: 11.4 µM (active) | AC50 [3]: 1.29 µM (active) | AC50 [4]: 0.695 µM (active)

N#CC(C#N)=C1C=CC=CN1/C(=C\c1ccccc1)C(=O)c1cccs1
EC50 [5]: > 38 µM (not active) | CC50 [6]: 21.6 µM (active) | AC50 [7]: 49.7 µM (active) | EC50 [8]: 14.3 µM (active) | AC50 (cells [9]): 22.1 µM (active) | AC50 (cells [10]): > 52 µM (inactive) | EC50 [11]: 4.04 µM (active)

CNC(=S)NNC(=O)c1cccn(Cc2ccc(Cl)cc2Cl)c1=O
IC50 (Albumin): > 94.1 µM (inactive)

Fc1ccc2[nH]c3c(N4CCc5ccccc5C4)ncnc3c2c1
EC50 (HEK293 [12]): 3.14 µM (active) | IC50 (HEK293 [13]): 12.4 µM (active) | AC50 [1]: 3.91 µM (active) | AC50 [14]: 13.8 µM (active) | CC50 [15]: > 40 µM (active) | IC50 [16]: 5.24 µM (active) | AC50 [2]: 24.1 µM (active) | IC50 (HEK293 [17]): 1.27 µM (active) | IC50 (HEK293 [18]): 1.51 µM (active) | AC50 [4]: 0.466 µM (active)

CCC(CO)NC(=O)C1C=C2c3cccc4[nH]cc(c34)CC2N(C)C1 (stereo not given)
AC50 (Caspase-6): 27.3 µM (active)

Nc1ncc(-c2ccccc2)n1CC1CCCO1 (stereo not given)
IC50 (H9c2): > 79 µM (inactive) | AC50 (Cytochrome P450 2C9): 14.1 µM (inconclusive) | AC50 [19]: > 20 µM (inactive)

COC1=C(N)C(=O)c2nc(C)ccc2C1=O
IC50 [20]: 59.6 µM (inactive) | IC50 [21]: 4.94 µM (active) | CC50 [15]: 20.8 µM (active) | AC50 [19]: 0.61 µM (active)

CCc1nonc1NC(=O)c1oc2cc(Br)ccc2c1C
IC50 (cells [22]): > 138 µM (inactive) | IC50 (Major prion protein): 3.55 µM (active)
